Here are results for two compounds from patent US11819526B2, “Lactobacillus Gasseri KBL697 strain and use thereof” (KoBioLabs, Inc., priority 2018, dated 2023).

One experiment concerns RBL-2H3 cell line. Briefly: Degranulation (β-hexosaminidase, co-secreted with histamine) in RBL-2H3 cells. The format is cell-based. The note with it: RBL-2H3, IgE + antigen DNP-HAS; 120 μL bacterial culture supernatant or ketotifen 20 μg/mL; negative control (Siraganian buffer) = 1.0. An excerpt: It has been reported that, in an allergic reaction, histamine is expressed in tissues, causing an inflammatory reaction, and suppressing histamine secretion leads to alleviation of allergic symptoms by blocking the reaction by histamine. In the present invention, the alleviation of allergic reactions and the therapeutic effect thereon through inhibition of histamine secretion by KBL697 were further confirmed. Further, in order to confirm whether the effect for treating and preventing chronic allergies identified in Example 1 is an inherent attribute of Lactobacillus gasseri, or is a remarkable effect particularly in KBL697 among Lactobacillus gasseri, the ability to suppress histamine secretion was evaluated also for nine additional Lactobacillus gasseri strains in addition to KBL697. […]
To identify the activity of β-hexosaminidase, 25 μL of the supernatant collected in Example 2-3 was transferred to each well of a 96-well plate, and then 25 μL of substrate (p-nitrophenyl N-acetyl-D-glucosaminidase) was added to each, and followed by a reaction at 37° C. in the 5% CO2 incubator for 90 minutes. Then, 200 μL of stop solution (Na2CO3/NaHCO3) was added to stop the reaction and then absorbance was measured at 405 nm. […]

In experiment [1] the test system is C57BL6 mice with DSS-induced colitis. In words: DSS-induced colitis in C57BL6 mice, KBL697 with or without infliximab. The format is in vivo, mouse. As to conditions: administered alone. The source says:
Infliximab (product name Remicade) is a therapeutic recombinant antibody drug used as an injection for autoimmune diseases such as rheumatoid arthritis, ankylosing spondylitis, ulcerative colitis, Crohn's disease in adults, Crohn's disease in children, psoriasis, and psoriatic arthritis. The purpose of this study was to confirm the effect of improving intestinal disease symptoms in vivo in the case of concurrent administration of KBL697 and infliximab.
After dividing C57BL6 mice into groups of eight mice, the mice were fed tap water with 2% DSS dissolved therein for 8 days (D0 to D7), inducing colitis. At the same time, 200 μL of PBS was orally administered to the mice in the control group for 14 days (D0 to D13) daily, while 200 μL of the KBL697 strain diluted in PBS to 1×10^10 CFU/mL was orally administered to the mice in the group dosed with KBL697 so that the amount of daily administration could be set at 2×10^9 CFU. […] During the 14 days in which colitis was induced by DSS, the body weight changes of the mice in the control group and each test group were measured daily, and on the 14th day after DSS was supplied (D14), mice were subjected to autopsies to measure the length of the colon.

On to `CN1CCC(=C2c3ccccc3CC(=O)c3sccc32)CC1` [Ketotifen, ketotifen], for which the “β-hexosaminidase (fold change)” value with RBL-2H3 cell line is listed as 0.3861 fold change.
As for “infliximab: therapeutic recombinant antibody drug (product name Remicade)”, in experiment [1] (2% DSS 8 days, KBL697 2×10^9 CFU oral daily, infliximab 5 mg/kg, D14, FIGS. 18A, 18B), the “width of decrease in the colon length compared to control group (DSS+PBS)” value was “significantly improved”. The “effect on body weight decrease compared to control group” value in experiment [1] (2% DSS, when 14 days elapsed after the administration) is given as “significantly improved”.
